Laboratory results reported in ChEMBL document CHEMBL1201862, “PubChem BioAssay data set” (2004).
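Where inhibition never reached the appropriate level, the endpoint shown equals the highest concentration tested. Otherwise, values were interpolated linearly from a five-concentration, 48-hour dose response in 96-well plates. GI50: concentration for 50% inhibition of growth.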 Calls of active or inactive are those of the source. No stated cut-off is given here; in the data, active = GI50 up to about 1.1 µM and inactive = higher. Square brackets hold non-standard residues; d marks the D form. Peptide text beside a SMILES is read from it. Phe(4-Cl) = N[CH](Cc1ccc(Cl)cc1)C(=O)O; 2Nal = N[CH](Cc1ccc2ccccc2c1)C(=O)O; 3Pal = N[CH](Cc1cccnc1)C(=O)O

Experiments:
Assay in all cases: NCI-60 cell line screen, 48 h
KM12 = test system: KM12
A549 = test system: A549
SK-MEL-2 = test system: SK-MEL-2
OVCAR-5 = test system: OVCAR-5
OVCAR-8 = test system: OVCAR-8
SF-268 = test system: SF-268
UACC-257 = test system: UACC-257
NCI-H522 = test system: NCI-H522
U-251 = test system: U-251
RXF 393 = test system: RXF 393
SW-620 = test system: SW-620
MDA-N = test system: MDA-N
HT-29 = test system: HT-29
OVCAR-4 = test system: OVCAR-4
OVCAR-3 = test system: OVCAR-3
RPMI-8226 = test system: RPMI-8226
SNB-19 = test system: SNB-19
SK-OV-3 = test system: SK-OV-3
HOP-62 = test system: HOP-62

Measured: GI50

O=C(Nc1nc2ccc([N+](=O)[O-])cc2[n+]([O-])n1)C(F)(F)F
inactive: KM12 29.1 µM | A549 24.6 µM | SK-MEL-2 20.7 µM | OVCAR-5 41.8 µM | OVCAR-8 21 µM | SF-268 62.4 µM | UACC-257 16.9 µM | NCI-H522 21 µM | U-251 30.2 µM | RXF 393 54.8 µM | SW-620 37.6 µM | MDA-N 18.7 µM | HT-29 23.3 µM | OVCAR-4 26.3 µM | OVCAR-3 > 10 µM | RPMI-8226 15 µM | SNB-19 49.8 µM

CNC(=O)CNC(=O)CCC(=O)OC
inactive: KM12 > 100 µM | A549 > 100 µM | SK-MEL-2 > 100 µM | OVCAR-5 > 100 µM | OVCAR-8 > 100 µM | SF-268 > 100 µM | NCI-H522 66.2 µM | U-251 > 100 µM | RXF 393 > 100 µM | SW-620 > 100 µM | MDA-N > 100 µM | SK-OV-3 > 100 µM | HOP-62 > 100 µM | HT-29 > 100 µM | OVCAR-4 > 100 µM | OVCAR-3 > 100 µM | SNB-19 > 100 µM

CC(=O)NC(Cc1ccc2ccccc2c1)C(=O)NC(Cc1ccc(Cl)cc1)C(=O)NC(Cc1cccnc1)C(=O)NC(CO)C(=O)NC(Cc1ccc(O)cc1)C(=O)NC(CCCN=C(N)N)C(=O)NC(CC(C)C)C(=O)NC(CCCN=C(N)N)C(=O)N1CCCC1C(=O)NC(C)C(N)=O (stereo not drawn) (Ac-[2Nal][Phe(4-Cl)][3Pal]SYRLRPA-NH2; configuration not given here)
inactive: KM12 > 100 µM | A549 > 100 µM | SK-MEL-2 > 100 µM | OVCAR-5 > 100 µM | OVCAR-8 > 100 µM | UACC-257 > 100 µM | NCI-H522 > 100 µM | U-251 > 100 µM | RXF 393 > 100 µM | SW-620 > 100 µM | MDA-N > 100 µM | HOP-62 > 100 µM | HT-29 > 100 µM | OVCAR-4 > 100 µM | OVCAR-3 49.9 µM | RPMI-8226 > 100 µM | SNB-19 > 100 µM

O=C1CCN(CCC(F)(F)C(F)(F)C(F)(F)C(F)(F)C(F)(F)C(F)(F)F)C(=S)N1CCC(F)(F)C(F)(F)C(F)(F)C(F)(F)C(F)(F)C(F)(F)F
inactive: KM12 > 100 µM | A549 > 100 µM | OVCAR-5 > 100 µM | OVCAR-8 > 100 µM | SF-268 > 100 µM | UACC-257 > 100 µM | NCI-H522 > 100 µM | U-251 > 100 µM | RXF 393 > 100 µM | SW-620 > 100 µM | MDA-N > 100 µM | SK-OV-3 > 100 µM | HOP-62 > 100 µM | HT-29 > 100 µM | OVCAR-4 > 100 µM | OVCAR-3 > 100 µM | SNB-19 > 100 µM
